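Assay format: 96-well plates, 48-hour exposure. Abbreviation: GI50, concentration required for 50% inhibition of growth.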 Active and inactive are the calls of the source. Cut-off read from the data, not from the text of the source: active = GI50 up to about 1.1 µM and inactive = higher. Square brackets hold non-standard residues; d marks the D form. Peptide text beside a SMILES is read from it. 2Nal = N[CH](Cc1ccc2ccccc2c1)C(=O)O
What was measured:
Assay in all cases: inhibition of tumour cell growth, NCI panel, 48 h
[1] = test system: SK-MEL-28
[2] = test system: SF-268
[3] = test system: SNB-75
[4] = test system: PC-3
[5] = test system: Malme-3M
[6] = test system: DU-145
[7] = test system: UACC-257
[8] = test system: HOP-62
[9] = test system: A498
[10] = test system: SK-MEL-2
[11] = test system: K562
[12] = test system: SW-620
[13] = test system: MCF7
[14] = test system: SF-539
[15] = test system: OVCAR-4
[16] = test system: T47D
[17] = test system: LOX IMVI
[18] = test system: IGROV-1
[19] = test system: UACC-62
[20] = test system: SN12C

Measured: GI50

O=C(/C=C/c1ccc(O)c(O)c1)NCCc1ccc(-c2ccccc2)cc1
inactive: [1] 59.8 µM | [2] 31.8 µM | [3] > 100 µM | [4] > 100 µM | [5] 17.9 µM | [6] > 100 µM | [7] > 100 µM | [8] 31.3 µM | [9] > 100 µM | [10] > 100 µM | [11] 27.2 µM | [12] > 100 µM | [13] 32.3 µM | [14] > 100 µM | [15] > 100 µM | [16] > 100 µM

O=c1c2c3c(sc2nc2n1NC=NN2)CCCC3
inactive: [1] 17.7 µM | [2] 17.5 µM | [3] 23.8 µM | [4] 24.2 µM | [5] 21.4 µM | [17] 2.49 µM | [18] 26.6 µM | [19] 17.6 µM | [6] 36.6 µM | [7] 19.9 µM | [9] > 53.6 µM | [10] 19.4 µM | [11] 2.15 µM | [12] 17.6 µM | [13] 13.8 µM | [20] 17.9 µM | [14] 17.4 µM | [15] 17.6 µM | [16] 31.8 µM

Cc1cc(C)n(C(=CC(=O)C(Cl)Cl)n2nc(C)cc2C)n1
inactive: [2] 6.38 µM | [3] > 100 µM | [4] 11.4 µM | [5] 4.35 µM | [17] 1.57 µM | [18] 9.64 µM | [19] 1.66 µM | [6] 5.38 µM | [7] 1.32 µM | [8] 3.66 µM | [9] 53.1 µM | [10] 3.69 µM | [11] 2.17 µM | [12] 3.88 µM | [13] 3.94 µM | [14] 3.43 µM | [15] > 100 µM | [16] 4.06 µM

CSc1nc(Br)nc2ncn(C3CC(Oc4ccc(C)cc4)C(COc4ccc(C)cc4)O3)c12 (configuration not stated)
inactive: [1] > 100 µM | [2] > 100 µM | [3] 21.9 µM | [4] > 100 µM | [5] > 100 µM | [17] > 100 µM | [18] > 100 µM | [19] > 100 µM | [6] > 100 µM | [7] > 100 µM | [8] > 100 µM | [9] > 100 µM | [10] > 100 µM | [12] > 100 µM | [13] > 100 µM | [20] > 100 µM | [14] 28.9 µM | [15] > 100 µM | [16] > 100 µM

NCCNc1ccc(NCCN)c2c1C(=O)c1c(O)ccc(O)c1C2=O
active: [1] 1.07 µM | [2] 0.00721 µM | [3] 0.0162 µM | [4] 0.205 µM | [5] 0.0671 µM | [17] 0.007 µM | [18] 0.0873 µM | [19] 0.0108 µM | [6] 0.109 µM | [7] 1.06 µM | [9] 0.0818 µM | [10] 0.44 µM | [12] 0.0246 µM | [13] 0.00731 µM | [20] 0.00483 µM | [14] 0.0219 µM | [15] 0.207 µM | [16] 0.229 µM

O=[N+]([O-])c1ccc(NC(=S)N/N=C(\c2ccccc2)c2ccccn2)cc1
inactive: [1] 1.22 µM | [3] 2.1 µM | [5] 1.65 µM | [18] 1.64 µM | [19] 1.24 µM | [6] 1.66 µM | [7] 1.6 µM | [9] 1.75 µM | [10] 1.76 µM | [13] 1.43 µM | [20] 1.48 µM | [14] 1.74 µM | [15] 1.73 µM | [16] 1.45 µM
active: [2] 0.0491 µM | [4] 0.229 µM | [8] 0.242 µM | [11] < 0.01 µM

COc1ccc2c(c1OC)OC[C@@H](C1=CC(=O)C=C(O)C1=O)C2
inactive: [1] 16.9 µM | [2] 18.1 µM | [3] 9.62 µM | [4] 13.1 µM | [5] 12 µM | [17] 3.32 µM | [18] 11.7 µM | [19] 12.1 µM | [6] 15.7 µM | [7] 13 µM | [8] 27 µM | [9] 15.3 µM | [10] 15.3 µM | [11] 2.2 µM | [12] 8.2 µM | [13] 9.91 µM | [20] 16.2 µM | [14] 13.5 µM | [15] 5.53 µM | [16] 4.25 µM

Cc1cnoc1/N=C1\C=C(O)C(=O)c2ccccc21
inactive: [1] 29.9 µM | [2] 17.8 µM | [3] 10.4 µM | [4] 25.4 µM | [5] 3.02 µM | [17] 5.26 µM | [18] 22.8 µM | [19] 4.71 µM | [6] 18 µM | [7] 16.3 µM | [8] 10 µM | [9] 29 µM | [10] 2.82 µM | [11] 1.73 µM | [12] 25.8 µM | [13] 4.26 µM | [20] 1.77 µM | [14] 21.4 µM | [15] 20.4 µM | [16] 27.9 µM

COc1ccc(-c2cc(-c3ccc(Nc4ccnc5cc(Cl)ccc45)cc3)nc(N)c2C#N)cc1
inactive: [1] > 100 µM | [2] > 100 µM | [3] > 100 µM | [4] > 100 µM | [5] > 100 µM | [17] > 100 µM | [18] > 100 µM | [19] > 100 µM | [6] > 100 µM | [8] > 100 µM | [9] > 100 µM | [10] > 100 µM | [11] > 100 µM | [12] > 100 µM | [13] > 100 µM | [14] > 100 µM | [15] > 100 µM | [16] > 100 µM

CC(C)(C)C(=O)/C=C(\OB(F)F)C(C)(C)C
inactive: [1] > 100 µM | [2] > 100 µM | [3] > 100 µM | [4] > 100 µM | [5] > 100 µM | [17] > 100 µM | [18] > 100 µM | [6] > 100 µM | [7] > 100 µM | [8] > 100 µM | [9] > 100 µM | [10] > 100 µM | [11] > 100 µM | [12] > 100 µM | [13] > 100 µM | [20] > 100 µM | [14] > 100 µM | [15] > 100 µM | [16] > 100 µM

O/N=C1/CC2(N3CCOCC3)C3CC/C(=N\O)C2CC1(Cc1ccccc1)C3 (configuration not stated)
inactive: [1] > 100 µM | [2] > 100 µM | [3] 36.1 µM | [4] > 100 µM | [5] > 100 µM | [17] > 100 µM | [18] > 100 µM | [19] > 100 µM | [6] > 100 µM | [7] 66.8 µM | [8] > 100 µM | [9] > 100 µM | [10] > 100 µM | [11] 74 µM | [12] > 100 µM | [13] 66.4 µM | [20] > 100 µM | [14] > 100 µM | [15] > 100 µM | [16] 67 µM

N#CC(c1ccccc1)N(CCOCCOCCN(C(=O)c1ccccc1)C(C#N)c1ccccc1)C(=O)c1ccccc1 (configuration not stated)
inactive: [1] 82.6 µM | [2] > 100 µM | [3] > 100 µM | [4] 37.5 µM | [5] 93.5 µM | [17] 91.2 µM | [18] > 100 µM | [19] 53.6 µM | [6] > 100 µM | [7] 47.1 µM | [9] > 100 µM | [10] 85.3 µM | [11] 56.6 µM | [12] > 100 µM | [13] > 100 µM | [20] 93.3 µM | [14] > 100 µM | [15] 81.7 µM | [16] 7.08 µM

CCc1c(Cc2cc(C)cc(C)c2)n2c(nc1=O)SCC2CBr (configuration not stated)
inactive: [1] > 50 µM | [2] > 50 µM | [3] 15.5 µM | [4] > 50 µM | [5] 12.9 µM | [17] > 50 µM | [18] 24.2 µM | [19] > 50 µM | [6] 23.1 µM | [7] > 50 µM | [9] 28.7 µM | [10] 44.4 µM | [11] > 50 µM | [12] > 50 µM | [13] 29.4 µM | [20] > 50 µM | [14] > 50 µM | [15] 46.1 µM | [16] 22.6 µM

CC(C)C(NC(=O)C(CCCCN)NC(=O)C(Cc1c[nH]c2ccccc12)NC(=O)C(Cc1ccc(O)cc1)NC(=O)C(CS)NC(=O)C(N)Cc1ccc2ccccc2c1)C(=O)NC(CS)C(=O)NC(C(N)=O)C(C)O (configuration not stated) (H-[2Nal]CYWKVCT-NH2; configuration not given here)
inactive: [1] > 100 µM | [2] > 12.5 µM | [3] > 100 µM | [4] > 12.5 µM | [5] > 12.5 µM | [17] > 12.5 µM | [18] > 12.5 µM | [19] > 12.5 µM | [6] > 12.5 µM | [7] > 12.5 µM | [8] > 12.5 µM | [9] > 12.5 µM | [10] > 12.5 µM | [12] > 12.5 µM | [13] > 12.5 µM | [20] > 12.5 µM | [14] > 12.5 µM | [15] > 12.5 µM | [16] > 12.5 µM

— ChEMBL document CHEMBL1201862, “PubChem BioAssay data set” (2004)
